Test results reported in patent US20130302442A1, “METHODS OF USING (4S,4AS,5AR,12AS)-4-DIMETHYLAMINO-3,10,12,12A-TETRAHYDROXY-7-[(METHOXY(METHYL)AMINO)-METHYL]-1,11-DIOXO-1,4,4A,5,5A,6,11,12A-OCTAHYDRO-NAPHTHACENE-2-CARBOXYLIC ACID AMIDE” (priority 2012, published 2013).
Converted amounts (≈) assume the structure as drawn. Read-outs that look alike come from different tables or passages of the source.

Legend:
[1] = system: Helicobacter pylori; conditions: H. pylori reference strain 3718, ATCC 43504; Clinical and Laboratory Standards Institute quality control range; cited from earlier work
[2] = system: Helicobacter pylori; experiment: In vitro MIC against multiple isolates of H. pylori; type: cell-based
[3] = system: E. faecium; experiment: In vitro MIC testing, antibacterial spectrum of activity; type: cell-based; conditions: Enterococcus faecium
[4] = system: E. faecalis; experiment: as above; type: cell-based; conditions: Enterococcus faecalis
[5] = system: methicillin-sensitive S. aureus (MSSA); experiment: In vitro MIC against isolates of MSSA; type: cell-based, Staphylococcus aureus; conditions: Staphylococcus aureus, MSSA (34 isolates)
[6] = system: S. haemolyticus; experiment: In vitro MIC testing, antibacterial spectrum of activity; type: cell-based; conditions: Staphylococcus haemolyticus, S. haemolyticus (33 isolates)
[7] = system: Streptococcus spp. [Group C]; experiment: as above; type: cell-based; conditions: Streptococcus spp. [Group C] (30 isolates)
[8] = system: S. pyogenes; experiment: as above; type: cell-based; conditions: Streptococcus pyogenes
[9] = system: P. acnes; experiment: as above; type: cell-based, Propionibacterium acnes; conditions: Cutibacterium acnes
[10] = system: S. epidermidis; experiment: as above; type: cell-based, Staphylococcus epidermidis; conditions: Staphylococcus epidermidis; for MIC50: read-out: MIC50; for MIC90: read-out: MIC90
[11] = system: community-acquired methicillin-resistant S. aureus (MRSA-CA); experiment: In vitro MIC against isolates of MRSA-CA; type: cell-based, Staphylococcus aureus; conditions: Staphylococcus aureus; MRSA-CA (33 isolates)
[12] = system: S. pneumoniae; experiment: In vitro MIC testing, antibacterial spectrum of activity; type: cell-based, Streptococcus pneumoniae; conditions: Streptococcus pneumoniae, S. pneumoniae [PSSP] (32 isolates)
[13] = system: P. avidum; experiment: as above; type: cell-based; conditions: P. avidum [clinical isolates] (4 isolates)
[14] = system: hospital-associated methicillin-resistant S. aureus (MRSA-HA); experiment: In vitro MIC against isolates of MRSA-HA; type: cell-based, Staphylococcus aureus; conditions: Staphylococcus aureus; MRSA-HA (33 isolates)
[15] = system: S. agalactiae; experiment: In vitro MIC testing, antibacterial spectrum of activity; type: cell-based; conditions: Streptococcus agalactiae
[16] = system: S. aureus; experiment: as above; type: cell-based, Staphylococcus aureus; conditions: Staphylococcus aureus
[17] = S. epidermidis [MRSE] (32 isolates)
[18] = S. epidermidis [MSSE] (31 isolates)

For `CC1(C)S[C@@H]2[C@H](NC(=O)[C@H](N)c3ccc(O)cc3)C(=O)N2[C@H]1C(=O)O` [AMX, amoxicillin], the “MIC, CLSI Quality Control Range” value [1] is listed as “(0.015-0.12) μg/mL”, the “MIC Range” value ([2]; H. pylori clinical isolate summary) is listed as 0.015 to 0.12 µg/mL and the MIC ([2]; H. pylori clinical isolate, culture No. 4368) is listed as 0.06 µg/mL (≈ 0.164 µM). For the same compound, the MIC ([2]; H. pylori clinical isolate, culture No. 4369) was 0.12 µg/mL (≈ 0.328 µM), the MIC ([2]; H. pylori clinical isolate, culture No. 4370) was 0.12 µg/mL (≈ 0.328 µM) and the MIC ([2]; H. pylori clinical isolate, culture No. 4371) was 0.12 µg/mL (≈ 0.328 µM). For the same compound, the MIC ([2]; H. pylori clinical isolate, culture No. 4372) was 0.015 µg/mL (≈ 0.041 µM), the MIC ([2]; H. pylori clinical isolate, culture No. 4374) was 0.015 µg/mL (≈ 0.041 µM) and the MIC ([2]; H. pylori clinical isolate, culture No. 4375) was 0.12 µg/mL (≈ 0.328 µM). It also gave an MIC ([2]; H. pylori clinical isolate, culture No. 4377) of 0.015 µg/mL (≈ 0.041 µM), an MIC ([2]; H. pylori clinical isolate, culture No. 4503) of 0.03 µg/mL (≈ 0.0821 µM) and an MIC ([2]; H. pylori clinical isolate, culture No. 4504) of 0.015 µg/mL (≈ 0.041 µM). The MIC ([2]; H. pylori reference strain, culture No. 3718, ATCC 43504) was 0.03 µg/mL (≈ 0.0821 µM), the MIC ([2]; H. pylori reference strain, culture No. 3719, ATCC 700824) was 0.015 µg/mL (≈ 0.041 µM) and the MIC ([2]; H. pylori reference strain, culture No. 3720, ATCC BAA-945) was 0.06 µg/mL (≈ 0.164 µM). The MIC50 ([2]; H. pylori, MIC for 50% of clinical test isolates) was 0.03 µg/mL (≈ 0.0821 µM) and the MIC90 ([2]; H. pylori, MIC for 90% of clinical test isolates) was 0.12 µg/mL (≈ 0.328 µM).

Work on `CCC[C@@H]1C[C@@H](C(=O)N[C@@H]([C@H]2O[C@H](SC)[C@H](O)[C@@H](O)[C@H]2O)[C@H](C)Cl)N(C)C1` [Clindamycin] yielded an MIC50 [3] greater than 32 µg/mL, an MIC90 [3] greater than 32 µg/mL and an MIC50 ([3]; VRE) greater than 32 µg/mL. For the same compound, the MIC90 ([3]; VRE) was greater than 32 µg/mL, the MIC50 [4] was greater than 32 µg/mL and the MIC90 [4] was greater than 32 µg/mL. It also gave an MIC50 [5] of 0.12 µg/mL (≈ 0.282 µM), an MIC90 ([5]; read-out: MIC90) greater than 32 µg/mL and an MIC50 ([6]; read-out: MIC50) of 0.12 µg/mL (≈ 0.282 µM). The MIC90 ([6]; read-out: MIC90) was 1 µg/mL (≈ 2.35 µM), the MIC50 ([7]; read-out: MIC50) was 0.06 µg/mL (≈ 0.141 µM) and the MIC90 ([7]; read-out: MIC90) was 0.12 µg/mL (≈ 0.282 µM). For the same compound, the MIC50 [8] was 0.03 µg/mL (≈ 0.0706 µM), the MIC90 [8] was 0.06 µg/mL (≈ 0.141 µM) and the MIC50 ([9]; read-out: MIC50) was no more than 0.06 µg/mL. It also gave an MIC90 ([9]; read-out: MIC90) of 4 µg/mL (≈ 9.41 µM), an MIC50 [10, 17] greater than 32 µg/mL and an MIC90 [10, 17] greater than 32 µg/mL. It also gave an MIC50 [10, 18] of 0.12 µg/mL (≈ 0.282 µM), an MIC90 [10, 18] greater than 32 µg/mL and an MIC50 [11] of 0.12 µg/mL (≈ 0.282 µM). The MIC90 [11] was 0.25 µg/mL (≈ 0.588 µM), the MIC50 ([12]; read-out: MIC50) was 0.03 µg/mL (≈ 0.0706 µM) and the MIC90 ([12]; read-out: MIC90) was 0.06 µg/mL (≈ 0.141 µM). For the same compound, the “MIC Range” value [13] was “≦0.06-0.5 μg/mL”, the MIC50 [14] was 2 µg/mL (≈ 4.71 µM) and the MIC90 [14] was greater than 32 µg/mL. For the same compound, the MIC50 [15] was 0.06 µg/mL (≈ 0.141 µM), the MIC90 [15] was greater than 16 µg/mL and the MIC50 ([16]; MRSA) was 0.25 µg/mL (≈ 0.588 µM). For the same compound, the MIC90 ([16]; MRSA) was greater than 32 µg/mL, the MIC50 ([16]; MSSA) was 0.25 µg/mL (≈ 0.588 µM) and the MIC90 ([16]; MSSA) was greater than 32 µg/mL.
